One experiment relates to IFNα-induced STAT phosphorylation (pSTAT5) in human whole blood. Briefly: IFNα-Induced STAT Phosphorylation in Human Whole Blood. The conditions noted are these: 1 h incubation with compound, 1000 U/mL recombinant human IFNα A/D for 15 min, pSTAT5 in CD3 positive population, read-out: IFNα-Induced Stat Phosph. (IC50). The class given is cell-based. How it is done: IFNα-Induced STAT Phosphorylation in Human Whole Blood
After an hour long incubation with compound, human whole blood (drawn with either EDTA or ACD-A as anti-coagulant) was stimulated with 1000 U/mL recombinant human IFNα A/D (R&D Systems 11200-2) for 15 min. The stimulation was stopped by adding Fix/Lyse buffer (BD 558049). Cells were stained with a CD3 FITC antibody (BD 555916), washed, and permeabilized on ice using Perm III buffer (BD 558050). Cells were then stained with an Alexa-Fluor 647 pSTAT5 (pY694) antibody (BD 612599) for 30 min prior to analysis on the FACS Canto II. The amount of pSTAT5 expression was quantitated by median fluorescence intensity after gating on the CD3 positive population.
As for `CNC(=O)c1nnc(NC(=O)C2CC(F)C2)cc1Nc1ncccc1S(C)(=O)=O` (single isomer, unassigned) [Example 125], the IC50 is 272 nM.
As to `CNC(=O)c1nnc(NC(=O)C2CC(F)C2)cc1Nc1ncccc1S(C)(=O)=O` (single isomer, unassigned) [Example 126], the IC50 is 343 nM.
Take `CNC(=O)c1nnc(Nc2ccc(OC)cn2)cc1Nc1ncccc1S(C)(=O)=O` [Example 2]: the IC50 stood at 26 nM.
As to `CNC(=O)c1nnc(Nc2cc(F)ccn2)cc1Nc1ncccc1S(C)(=O)=O` [Example 4], the IC50 is 32 nM.
As to `CNC(=O)c1nnc(Nc2cccc(F)n2)cc1Nc1ncccc1S(C)(=O)=O` [Example 5], the IC50 was determined as 13 nM.
As for `CNC(=O)c1nnc(Nc2ccc(OC)nn2)cc1Nc1ncccc1S(C)(=O)=O` [Example 7], the IC50 was 42 nM.
Consider `CCC(=O)Nc1cc(Nc2ncccc2S(C)(=O)=O)c(C(=O)NC)nn1` [Example 8], for which the IC50 came out at 49 nM.
With `CNC(=O)c1nnc(NC(=O)C2CCC2)cc1Nc1ncccc1S(C)(=O)=O` [Example 9], the IC50 is 77 nM.
Turning to `CNC(=O)c1nnc(Nc2ccc(C)cn2)cc1Nc1ncccc1S(C)(=O)=O` [Example 10], the IC50 worked out at 21 nM.
`CNC(=O)c1nnc(Nc2cc(C#N)n(C)n2)cc1Nc1ncccc1S(C)(=O)=O` [Example 12]: the IC50 came to 38 nM.
In the case of `CNC(=O)c1nnc(Nc2cc(C3CC3)ncn2)cc1Nc1ncccc1S(C)(=O)=O` [Example 14], the IC50 was determined as 11 nM.
On the same count and under the same terms, in the case of `CNC(=O)c1nnc(Nc2ccc(C3CC3)nn2)cc1Nc1ncccc1S(C)(=O)=O` [Example 15] it was 13 nM; in that of `CNC(=O)c1nnc(Nc2ccc(F)nc2)cc1Nc1ncccc1S(C)(=O)=O` [Example 16], 1430 nM; in that of `CNC(=O)c1nnc(Nc2cc(C)n(C)n2)cc1Nc1ncccc1S(C)(=O)=O` [Example 17], 18 nM.
In the case of `CNC(=O)c1nnc(Nc2ccc(C(F)(F)F)nn2)cc1Nc1ncccc1S(C)(=O)=O` [Example 19], the IC50 is 44 nM.
In the case of `CNC(=O)c1nnc(Nc2ccn(CC(F)F)n2)cc1Nc1ncccc1S(C)(=O)=O` [Example 20], the IC50 amounted to 47 nM.
Consider `CNC(=O)c1nnc(Nc2ccnc(OC)n2)cc1Nc1ncccc1S(C)(=O)=O` [Example 21], for which the IC50 is 37 nM.
Regarding `CNC(=O)c1nnc(Nc2cc(C(C)(C)O)c(F)cn2)cc1Nc1ncccc1S(C)(=O)=O` [Example 22], the concentration for half-maximal inhibition (IC50) came out at 31 nM.
Consider `CNC(=O)c1nnc(NC2CC2)cc1Nc1ncccc1S(C)(=O)=O` [Example 23], for which the IC50 worked out at 2140 nM.
Regarding `CNC(=O)c1nnc(Nc2ccc(C(C)(C)N)cn2)cc1Nc1ncccc1S(C)(=O)=O` [Example 24], the IC50 worked out at 9 nM.
Still for that read-out and setting: then `CNC(=O)c1nnc(Nc2ccc(C(C)(C)NC(C)=O)cn2)cc1Nc1ncccc1S(C)(=O)=O` [Example 25], with 15 nM; and `CNC(=O)c1nnc(Nc2ccn(CC(F)(F)F)n2)cc1Nc1ncccc1S(C)(=O)=O` [Example 26], with 49 nM; and `CNC(=O)c1nnc(Nc2cc(C(F)(F)F)ncn2)cc1Nc1ncccc1S(C)(=O)=O` [Example 27], with 88 nM.
Consider `CNC(=O)c1nnc(Nc2ccc(OC)nn2)cc1Nc1ncccc1S(C)(=O)=O` [Example 28], for which the IC50 came out at 28 nM.
Consider `CNC(=O)c1nnc(Nc2cc(C(C)(C)O)c(Cl)cn2)cc1Nc1ncccc1S(C)(=O)=O` [Example 29], for which the 50% inhibitory concentration (IC50) came to 92 nM.
As to `CNC(=O)c1nnc(Nc2cc3ccc(C(C)(C)O)cc3cn2)cc1Nc1ncccc1S(C)(=O)=O` [Example 30], the IC50 was 57 nM.
Same read-out and setting: then `CNC(=O)c1nnc(Nc2cc(C(F)(F)F)c(C(C)(C)O)cn2)cc1Nc1ncccc1S(C)(=O)=O` [Example 31], with 31 nM; and `CNC(=O)c1nnc(Nc2ccc(C3(C#N)CC3)cn2)cc1Nc1ncccc1S(C)(=O)=O` [Example 33], with 18 nM.
For `CNC(=O)c1nnc(Nc2cc(N(C)C)ncn2)cc1Nc1ncccc1S(C)(=O)=O` [Example 34], the IC50 was found to be 115 nM.
With `CNC(=O)c1nnc(Nc2cc(N3CCC3)ncn2)cc1Nc1ncccc1S(C)(=O)=O` [Example 35], the IC50 worked out at 90 nM.
For `CNC(=O)c1nnc(Nc2cc(OC)c(C(C)(C)O)cn2)cc1Nc1ncccc1S(C)(=O)=O` [Example 36], the IC50 was 22 nM.
Consider `CNC(=O)c1nnc(Nc2cnc(C3CC3)cn2)cc1Nc1ncccc1S(C)(=O)=O` [Example 37], for which the IC50 worked out at 26 nM.
As for `CNC(=O)c1nnc(Nc2ccc(N(C)C)nn2)cc1Nc1ncccc1S(C)(=O)=O` [Example 38], the IC50 stood at 18 nM.
Consider `CCc1cnc(Nc2cc(Nc3ncccc3S(C)(=O)=O)c(C(=O)NC)nn2)cn1` [Example 39], for which the IC50 worked out at 15 nM.
Consider `CNC(=O)c1nnc(Nc2ccnc(C3CC3)n2)cc1Nc1ncccc1S(C)(=O)=O` [Example 40], for which the IC50 worked out at 18 nM.
Still for that read-out and setting: then `CNC(=O)c1nnc(Nc2cc(C3CC3)nc(COC)n2)cc1Nc1ncccc1S(C)(=O)=O` [Example 41], with 24 nM; and `CNC(=O)c1nnc(Nc2cnc(COC)cn2)cc1Nc1ncccc1S(C)(=O)=O` [Example 42], with 15 nM.
For the compound `CNC(=O)c1nnc(NC(=O)[C@@H]2C[C@H]2F)cc1Nc1ncccc1S(C)(=O)=O` [Example 43], the IC50 was 26 nM.
`CNC(=O)c1nnc(NC(=O)[C@@H]2C[C@@H]2F)cc1Nc1ncccc1S(C)(=O)=O` [Example 44]: the IC50 amounted to 14 nM.
For the compound `CNC(=O)c1nnc(NC(=O)C2CC2(F)F)cc1Nc1ncccc1S(C)(=O)=O` (stereo not drawn) [Example 45], the IC50 came to 34 nM.
In the case of `CNC(=O)c1nnc(NC(=O)[C@@H]2C[C@H]2C)cc1Nc1ncccc1S(C)(=O)=O` [Example 46], the IC50 was 53 nM.
Same read-out and setting: in the case of `CNC(=O)c1nnc(NC(=O)C2CC23CC3)cc1Nc1ncccc1S(C)(=O)=O` (stereo not drawn) [Example 47] it was 48 nM; in that of `CNC(=O)c1nnc(NC(=O)[C@@H]2C[C@@H]2C)cc1Nc1ncccc1S(C)(=O)=O` [Example 48], 40 nM.
In the case of `CNC(=O)c1nnc(NC(=O)[C@H]2C[C@@H]2C)cc1Nc1ncccc1S(C)(=O)=O` [Example 49], the IC50 turned out to be 58 nM.
Consider `CNC(=O)c1nnc(Nc2cc(C(F)(F)F)c(C(=O)N(C)C)cn2)cc1Nc1ncccc1S(C)(=O)=O` [Example 50], for which the IC50 amounted to 30 nM.
As for `CNC(=O)c1nnc(Nc2cnn(C)n2)cc1Nc1ncccc1S(C)(=O)=O` [Example 51], the IC50 was 29 nM.
Consider `CNC(=O)c1nnc(Nc2cc(C(F)(F)F)c(C(=O)N(C)C3CC3)cn2)cc1Nc1ncccc1S(C)(=O)=O` [Example 52], for which the IC50 was determined as 92 nM.
`CNC(=O)c1nnc(Nc2cn(C)nn2)cc1Nc1ncccc1S(C)(=O)=O` [Example 53]: the IC50 stood at 132 nM.
As for `CNC(=O)c1nnc(Nc2cn(C3CC3)nn2)cc1Nc1ncccc1S(C)(=O)=O` [Example 56], the IC50 was 18 nM.
Take `CCCn1cc(Nc2cc(Nc3ncccc3S(C)(=O)=O)c(C(=O)NC)nn2)nn1` [Example 57]: the IC50 is 59 nM.
For `CNC(=O)c1nnc(Nc2cc(C)on2)cc1Nc1ncccc1S(C)(=O)=O` [Example 58], the IC50 turned out to be 24 nM.
Turning to `CNC(=O)c1nnc(Nc2cc(C3CC3)c(C#N)cn2)cc1Nc1ncccc1S(C)(=O)=O` [Example 59], the IC50 came out at 219 nM.
In the case of `CNC(=O)c1nnc(Nc2cc(C)nc(C3CC3)n2)cc1Nc1ncccc1S(C)(=O)=O` [Example 61], the IC50 was 18 nM.
Regarding `CNC(=O)c1nnc(Nc2ccc(OC3CCOC3)nn2)cc1Nc1ncccc1S(C)(=O)=O` (stereo not drawn) [Example 63], the IC50 came out at 13 nM.
Turning to `CNC(=O)c1nnc(Nc2ccc(OCCOC)nn2)cc1Nc1ncccc1S(C)(=O)=O` [Example 64], the IC50 was 79 nM.
Take `CNC(=O)c1nnc(Nc2ccc(C(C)(C)NC(=O)CN)nn2)cc1Nc1ncccc1S(C)(=O)=O` [Example 65]: the IC50 came out at 193 nM.
Take `CNC(=O)c1nnc(NC(=O)C2Cc3ccccc32)cc1Nc1ncccc1S(C)(=O)=O` (stereo not drawn) [Example 66]: the IC50 amounted to 1240 nM.
On the same count and under the same terms, in the case of `CNC(=O)c1nnc(Nc2ccc(C(C)(C)OC(=O)CN)cn2)cc1Nc1ncccc1S(C)(=O)=O` [Example 67] it was 3580 nM.
For `CNC(=O)c1nnc(Nc2cc(C(C)(C)NC(C)=O)ccn2)cc1Nc1ncccc1S(C)(=O)=O` [Example 70], the half-maximal inhibitory concentration (IC50) worked out at 1100 nM.
Regarding `CNC(=O)c1nnc(Nc2cc(C(C)(C)NC(C)C)ccn2)cc1Nc1ncccc1S(C)(=O)=O` [Example 72], the IC50 came to 23 nM.

The experiment is the same for the next values; noted with them: Homo sapiens, 1 h incubation with compound, 1000 U/mL recombinant human IFNα A/D for 15 min, pSTAT5 in CD3 positive population, read-out: IFNα-Induced Stat Phosph. (IC50).
As to `[2H]C([2H])([2H])NC(=O)c1nnc(Nc2ccc(F)cn2)cc1Nc1ncccc1S(C)(=O)=O` [Example 1, 6-((5-fluoropyridin-2-yl)amino)-N-(methyl-d3)-4-((3-(methylsulfonyl)pyridin-2-yl)amino)pyridazine-3-carboxamide], the IC50 stood at 12 nM.
Consider `[2H]C([2H])([2H])NC(=O)c1nnc(Nc2ccc(C(C)(C)O)cn2)cc1Nc1ncccc1S(C)(=O)=O` [Example 13, 6-((5-(2-hydroxypropan-2-yl)pyridin-2-yl)amino)-N-(methyl-d3)-4-((3-(methylsulfonyl)pyridin-2-yl)amino)pyridazine-3-carboxamide], for which the IC50 came to 2 nM.
As for `[2H]C([2H])([2H])NC(=O)c1nnc(Nc2ccc(CNC(C)=O)cn2)cc1Nc1ncccc1S(C)(=O)=O` [Example 69, 6-((5-(acetamidomethyl)pyridin-2-yl)amino)-N-(methyl-d3)-4-((3-(methylsulfonyl)pyridin-2-yl)amino)pyridazine-3-carboxamide], the IC50 was 12 nM.

One may read the IC50 as the point on the concentration scale where inhibition reaches its midpoint.
